Assay results as given in EPA's ToxValDB 9.5 (doi:10.2903/j.efsa.2005.25r).
Values after ≈ are worked out from the molar mass of the structure shown.

Assays:
Phasianus sp. = conditions: short-term; duration: 5 days; oral; feed; mortality
Daphnia magna = conditions: chronic/long-term; duration: 21 days; growth
Apis mellifera = conditions: acute
Hyalella azteca = conditions: chronic/long-term; duration: 21 days; mortality
Cyprinodon variegatus = conditions: mortality
Coturnix coturnix = conditions: acute; duration: 5 days; oral; diet; mortality
Oncorhynchus mykiss = conditions: chronic/long-term; duration: 28 days; mortality

Question: What does the source list for `CN(C)C(=O)Nc1ccc(Cl)c(Cl)c1` [Diuron]?
Answer: LC50 (Phasianus sp.): > 5000 mg/kg; NOEC (Daphnia magna): 0.096 mg/L; LEL (Apis mellifera; dermal): > 100 µg/piece; LEL (Apis mellifera; oral, unspecified): > 100 µg/piece; LC50 (Pontoscolex corethrurus; acute, mortality): > 798 mg/kg; NOEC (Pontoscolex corethrurus; chronic/long-term): 14.4 mg/kg; NOEC (Hyalella azteca): 0.06 mg/L; LC50 (Cyprinodon variegatus; acute, duration: 96 hours): 6.7 µg/mL (≈ 28.7 µM); NOEC (Cyprinodon variegatus; chronic/long-term, duration: 32 days): 1.7 mg/L; LD50 (Rattus norvegicus; acute, mortality): 2000 mg/kg; NOAEL (Rattus norvegicus; chronic): 80 mg/kg-day; LOAEL (Rattus norvegicus; chronic, duration: 2 years, F, hematological): 1.7 mg/kg-day; NOAEL (Rattus norvegicus; chronic, duration: 6 months, hematological): 1.6 mg/kg-day; NOAEL (Rattus norvegicus; chronic, duration: 6 months, oral, hematological): 0.66 mg/kg-day; LC50 (Colinus virginianus; acute, duration: 5 days, oral, diet, mortality): 346 mg/kg-day; LD50 (Colinus virginianus; acute, duration: 14 days, oral, diet, mortality): 1100 mg/kg; NOEC (Colinus virginianus; reproduction developmental): 24.1 mg/kg-day; LC50 (Coturnix coturnix): > 5000 mg/kg; NOEC (Oncorhynchus mykiss): 0.41 mg/L
